Tests used:
[1] = target: T1, bone morphogenetic protein-2 (BMP-2) [骨形态发生蛋白-2(BMP-2)] (Homo sapiens, UniProt P12643); test: Glass surface BMP-2 binding, protein immunofluorescence; conditions: relative to (Lys0.4Nle0.6)30 polymer; grafted on glass
T1 sequence (P12643 283-396): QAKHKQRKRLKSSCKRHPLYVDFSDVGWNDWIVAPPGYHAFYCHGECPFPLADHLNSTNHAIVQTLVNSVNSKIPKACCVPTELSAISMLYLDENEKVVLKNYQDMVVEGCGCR

[2] = target: T2, fibroblast growth factor-21 (FGF-21) [成纤维细胞生长因子-21(FGF-21)] (Homo sapiens, UniProt Q9NSA1); test: Glass surface FGF-21 binding, protein immunofluorescence; conditions: relative to (Lys0.4Nle0.6)30 polymer; grafted on glass
T2 sequence (Q9NSA1 29-209): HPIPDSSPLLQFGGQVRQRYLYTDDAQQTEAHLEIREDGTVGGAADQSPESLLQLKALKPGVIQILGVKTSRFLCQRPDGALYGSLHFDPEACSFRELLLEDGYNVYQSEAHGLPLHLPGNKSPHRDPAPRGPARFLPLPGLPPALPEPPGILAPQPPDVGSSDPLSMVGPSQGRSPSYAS

[3] = target: TGF-β (Homo sapiens, UniProt P01137); test: Glass surface TGF-β binding, peptide versus polymer; conditions: relative to (Lys0.4Nle0.6)30 polymer; grafted on glass
[4] = target: platelet-derived factor PDGF-AA [血小板衍生因子PDGF-AA] (Homo sapiens, UniProt P04085); test: Glass surface PDGF-AA binding, peptide versus polymer; conditions: relative to (Lys0.4Nle0.6)30 polymer; grafted on glass
[5] = test system: growth factors [生长因子]; test: Glass surface growth factor binding, peptide versus polymer (overall); conditions: peptide versus (Lys0.4Nle0.6)30 polymer; grafted on glass

TGF-β, sequence (P01137 279-390 limits assumed): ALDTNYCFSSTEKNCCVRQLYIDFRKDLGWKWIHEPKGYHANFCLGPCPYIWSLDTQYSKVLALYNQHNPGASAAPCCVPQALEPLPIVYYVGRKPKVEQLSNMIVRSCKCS

For “(L-Lys)-(L-Nor)-(D-Lys)-(D-Nor)-(L-Nor)-(L-Lys)-(D-Nor)-(D-Lys)-(L-Nor)-(D-Nor)-(L-Lys)-(L-Nor)-(D-Lys)-(D-Nor)-(L-Nor)-(L-Lys)-(D-Nor)-(D-Lys)-(L-Nor)-(D-Nor)-(L-Lys)-(L-Nor)-(D-Lys)-(D-Nor)-(L-Nor)-(L-Lys)-(D-Nor)-(L-Nor)-(L-Cys) [Lys0.4Nle0.6多肽]”, the “BMP-2 binding amount, multiple of peptide polymer” value [1] was 1.99 fold, the “FGF-21 binding amount, multiple of peptide polymer” value [2] was 2.55 fold and the “TGF-β binding amount, multiple of peptide polymer” value [3] was 1.61 fold. The “PDGF-AA binding amount, multiple of peptide polymer” value [4] was 2.06 fold and the “growth factor binding compared with polymer” value [5] was “优于聚合物”.

Source: CN115252762A, “一种高分子化合物的生长因子结合用途” (East China University of Science and Technology, priority 2021, dated 2022)
